This is an account of results in patent US7687510B2, “Pyrimidinone derivatives as therapeutic agents against acute and chronic inflammatory, ischaemic and remodelling processes” (Bayer Healthcare AG, priority 2002, dated 2010).

For the first assay, the target named is T1, human neutrophil elastase (HNE) (Homo sapiens, UniProt P08246).
T1 construct: purchased SERVA Electrophoresis GmbH, Heidelberg, Germany #20927.01
T1 sequence (P08246 30-267): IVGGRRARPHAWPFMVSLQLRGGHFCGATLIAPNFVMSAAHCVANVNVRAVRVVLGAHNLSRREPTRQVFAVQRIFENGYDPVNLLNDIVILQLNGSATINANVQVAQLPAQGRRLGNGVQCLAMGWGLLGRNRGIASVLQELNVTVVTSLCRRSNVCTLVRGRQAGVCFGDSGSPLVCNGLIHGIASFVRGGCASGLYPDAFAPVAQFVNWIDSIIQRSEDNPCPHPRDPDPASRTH
Put plainly: In vitro inhibition of HNE using a fluorogenic peptide substrate (continuous read-out signal, 384 MTP assay format). Format: biochemical. The settings on record: substrate MeOSuc-Ala-Ala-Pro-Val-AMC, 37° C. How it is done:
I. In vitro Enzyme Assays of Human Neutrophil Elastase (HNE)
assay buffer: 0.1 M HEPES-NaOH buffer pH 7.4, 0.5 M NaCl, 0.1% (w/v) bovine serum albumin;
suitable concentration (see below) of substrate in assay buffer;
suitable concentration of test compounds diluted with assay buffer from a 10 mM stock solution in DMSO.
The test solution is prepared by mixing 10 μl of test compound dilution, 20 μl of HNE enzyme dilution (final concentration 8-0.4 μU/ml, routinely 2.1 μU/ml) and 20 μl of substrate dilution (final concentration 1 mM-1 μM, routinely 20 μM), respectively. The solution is incubated for 0-2 hrs at 37° C. (routinely one hour). The florescence of the liberated AMC due to the enzymatic reaction is measured at 37° C. (TECAN spectra fluor plus plate reader). […] IC50 values are determined by RFU-versus-[I] plots. Km and Km(app.) values are determined by Lineweaver-Burk inverted to Ki values by Dixon plots.
`CCOC(=O)C1=C(CN(CC)CC)N(c2cccc(C(F)(F)F)c2)C(=O)NC1c1ccc(C#N)cc1` (stereo not shown) [Example 20, Ethyl 4-(4-cyanophenyl)-6-[(diethylamino)methyl]-2-oxo-1-[3-(trifluoromethyl)-phenyl]-1,2,3,4-tetrahydro-5-pyrimidinecarboxylate]: the half-inhibitory concentration (IC50) (commonly the concentration needed to halve the response being measured) came out at 700 nM.

Take `CCOC(=O)C1=C(C)N(c2cccc(C(F)(F)F)c2)C(=O)NC1c1ccc(C#N)nc1` (stereo not shown) [Example 24, Ethyl 4-(6-cyano-3-pyridinyl)-6-methyl-2-oxo-1-[3-(trifluoromethyl)phenyl]-1,2,3,4-tetrahydro-5-pyrimidinecarboxylate]: the IC50 was found to be 13 nM.

Regarding `CCOC(=O)C1=C(C)N(c2cccc(C(F)(F)F)c2)C(=O)N(C(C)=O)C1c1ccc(C#N)cc1` (stereo not shown) [Example 15, Ethyl 3-acetyl-4-(4-cyanophenyl)-6-methyl-2-oxo-1-[3-(trifluoromethyl)phenyl]-1,2,3,4-tetrahydro-5-pyrimidinecarboxylate], the half-maximal inhibitory concentration (IC50) worked out at 8 nM.

For `CCOC(=O)C1=C(C)N(c2cccc(C(F)(F)F)c2)C(=O)NC1c1ccc([N+](=O)[O-])cc1` (stereo not shown) [Example 110, Ethyl 6-methyl-4-(4-nitrophenyl)-2-oxo-1-[3-(trifluoromethyl)phenyl]-1,2,3,4-tetra-hydropyrimidine-5-carboxylate], the half-maximal inhibitory concentration (IC50) worked out at 50 nM.

With `CCOC(=O)C1=C(C)N(c2cccc(C(F)(F)F)c2)C(=O)NC1c1cccc([N+](=O)[O-])c1` (stereo not shown) [Example 103, Ethyl 6-methyl-4-(3-nitrophenyl)-2-oxo-1-[3-(trifluoromethyl)phenyl]-1,2,3,4-tetra-hydro-5-pyrimidinecarboxylate], the IC50 was found to be 60 nM.

On to `CC1=C(C(=O)OCCc2ccncc2)C(c2ccc(C#N)cc2)NC(=O)N1c1cccc(C(F)(F)F)c1` (stereo not shown) [Example 28, 2-(4-Pyridinyl)ethyl 4-(4-cyanophenyl)-6-methyl-2-oxo-1-[3-(trifluoromethyl)phenyl]-1,2,3,4-tetrahydro-5-pyrimidinecarboxylate], for which the half-maximal inhibitory concentration (IC50) came out at 50 nM.

With `CCOC(=O)C1=C(C)N(c2cccc(C(F)(F)F)c2)C(=O)N(C)C1c1ccc(C#N)cc1` (stereo not shown) [Example 14, Ethyl 4-(4-cyanophenyl)-3,6-dimethyl-2-oxo-1-[3-(trifluoromethyl)phenyl]-1,2,3,4-tetrahydro-5-pyrimidinecarboxylate], the IC50 is 5 nM.

On to `CC1=C(C(=O)N(C)C)C(c2ccc(C#N)cc2)NC(=O)N1c1cccc(C(F)(F)F)c1` (stereo not shown) [Example 58], for which the IC50 worked out at 1100 nM.

`N#CC1=C(N)N(c2cccc(C(F)(F)F)c2)C(=O)NC1c1ccc(C#N)cc1` (stereo not shown) [Example 9, 6-Amino-4-(4-cyanophenyl)-2-oxo-1-[3-(trifluoromethyl)phenyl]-1,2,3,4-tetrahydro-5-pyrimidinecarbonitrile]: the IC50 was 40 nM.

Regarding `CCOC(=O)C1=C(C)N(c2cccc(C(F)(F)F)c2)C(=O)N(C(=O)OCC)C1c1ccc(C#N)cc1` (stereo not shown) [Example 16, Diethyl 6-(4-cyanophenyl)-4-methyl-2-oxo-3-[3-(trifluoromethyl)phenyl]-3,6-di-hydro-1,5(2H)-pyrimidinedicarboxylate], the IC50 is 10 nM.

For `CCOC(=O)C1=C(C)N(c2cccc(C(F)(F)F)c2)C(=O)N(CC(=O)N2CCN(C)CC2)C1c1ccc(C#N)cc1` (stereo not shown) [Example 60], the IC50 was 5 nM.

For a further assay, the system named is human polymorphonuclear cells (PMNs). Put plainly: In vitro PMN elastolysis assay (tritiated elastin). Format: cell-based. The settings on record: at 1.2 μM; mean±s.e.m.; n=3 different donors at 3.6×10^5 cells per well. Here is the method: In Vitro PMN Elastolysis Assay:
This assay is used to determine the elastolytic potential of human polymorphonuclear cells (PMNs) and assess the proportion of degradation due to neutrophil elastase [cf. Z. W. She et al., Am. J. Respir. Cell. Mol. Biol. 9, 386-392 (1993)].
Tritiated elastin, in suspension, is coated on to a 96 well plate at 10 μg per well. Test and reference [ZD-0892 (J. Med. Chem. 40, 1876-1885, 3173-3181 (1997), WO 95/21855) and α1 protease inhibitor (α1PI)] compounds are added to the wells at the appropriate concentrations. […] Porcine pancreatic elastase (1.3 μM is used as a positive control for the assay, and α1PI (1.2 μM) is used as the positive inhibitor of neutrophil elastase. The cellular control is PMNs without compound at each appropriate cell density. The cells plus compounds are incubated in a humidified incubator at 37° C. for 4 hours. The plates are centrifuged to allow the harvest of cell supernatant only. The supernatant is transferred in 75 μl volumes to corresponding wells of a 96 well Lumaplate™ (solid scintillant containing plates). The plates are dried until no liquid is visible in the wells and read in a beta counter for 3 minutes per well. […]
The compounds of this invention are evaluated for their inhibitory activity in this HNE-dependent model of neutrophil elastolysis.
With “α1PI: α1 protease inhibitor, reference and positive inhibitor of neutrophil elastase”, the inhibition of elastolysis is given as 83.46±3.97%.

The same assay, now with this note: mean±s.e.m.; n=2 different donors at 3.6×10^5 cells per well.
Consider `COc1ccc(C(=O)N[C@H](C(=O)N2CCC[C@H]2C(=O)N[C@H](C(=O)C(F)(F)F)C(C)C)C(C)C)cc1` [ZD-0892], for which the half-inhibitory concentration (IC50) stood at 45.5 ± 7.75 nM.
